# Source: US12624068B2, “Exon skipping by peptide nucleic acid derivatives” (OliPass Corporation, priority 2016, dated 2026)
# [C(1O2)] = modified PNA monomer acting as cytosine, C(pOq) type, 1O2; [A(5)] = modified PNA monomer acting as adenine, A(p) type, p=5; [G(5)] = modified PNA monomer acting as guanine, G(p) type, p=5; [G(6)] = modified PNA monomer acting as guanine, G(p) type, p=6; {Fethoc} = N-terminal Fethoc cap; {NH2} = C-terminal amide
# Columns and labels:
# [1] = system: mdx mice; test: Unscheduled death, sacrifice or lymphoma in chronically treated mdx mice; format: in vivo, mouse
# Source text: [Grouping & ASO Treatment] Male mdx mice (7 weeks old) were randomly assigned to 4 groups of 0 (mdx negative control), 10, 50, and 200 pmole/Kg “DMD-ASO 1” based on individual grip strength scores by grip test. (N=12 per group) A satellite group of 12 male C57BL/6 mice (7 weeks old) was included in this study as the wild type negative control group for the full-length dystrophin expression level.
# The 50 and 200 pmole/Kg group subcutaneously received “DMD-ASO 1” as dissolved in PBS, 2× per week until the final sacrifice in Week 43. In the meantime, the 10 pmole/Kg group subcutaneously received “DMD-ASO 1” initially 2× per week during Week 0 to 8, and 3× per week afterwards to increase the ASO exposure.
# [Miscellaneous Findings] There were three cases of unscheduled sacrifice or death (Weeks 26, 39 and 43) in the mdx negative control group due to a large mass of muscular lymphoma developed most likely by chronic muscular inflammation.
# “DMD-ASO 1”, “DMD-ASO 2” and “DMD-ASO 6” were evaluated for their physiological effects in male mdx mice by long term subcutaneous administration. In this evaluation the animals were not subjected to physical tests requiring muscular stress in order to keep the transcription of the dystrophin gene undisturbed by excessive muscular stimulation.
# [Animals & Grouping] Male mdx mice (6 weeks old) were randomly assigned to 4 groups of the mdx negative control (no ASO treatment), “DMD-ASO 1” 50 pmole/Kg, “DMD-ASO 2” […], and “DMD-ASO 6” […] based on the body weight. (N=12-13 per group) 12 male C57BL/6 mice (6 weeks old) were adopted as the wild type (WT) negative control group.
# [Injection Solutions & ASO Treatment] Aqueous mother stock solutions of the ASOs were serially diluted in PBS to prepare the injection solutions of 25 nM “DMD-ASO 1” for 50 pmole/Kg “DMD-ASO 1”, 5 nM “DMD-ASO 2” for “DMD-ASO 2” 10 pmole/Kg, and 5 nM “DMD-ASO 6” for “DMD-ASO 6” 10 pmole/Kg. The animals were subcutaneously administered with the injection solutions at 2 mL/Kg, 2× per week.
# [2] = system: human SCN9A pre-mRNA; test: SCN9A nested PCR for exon skipping in PC3 cells; format: cell-based
# Procedure: Given that PC3 cells are known to abundantly express the human SCN9A pre-mRNA [Br. J. Pharmacol. vol 156, 420-431 (2009)], “SCN-ASO 7” was evaluated by SCN9A nested PCR for its ability to induce the skipping of exon 4 in the human SCN9A pre-mRNA in PC3 cells as follows. [Cell Culture & ASO Treatment] PC3 cells (Cat. No. CRL-1435, ATCC) were maintained in Ham's F-12K medium supplemented with 10% FBS, 1% streptomycin/penicillin, 1% L-glutamine, and 1% sodium pyruvate under 5% CO2 atmosphere at 37° C. PC3 cells grown in 60 mm culture dish containing 5 mL medium were treated with “SCN-ASO 7” at 0 (negative control), 10, 100 or 1,000 zM. [RNA Extraction] Following an 18 hour incubation, the PC3 cells were treated with 100 μg/mL cycloheximide for another 6 hours in order to freeze the ribosomal translation. Then total RNA was extracted from cells using “Universal RNA Extraction Kit” (Cat. Number 9767, Takara) according to the manufacturer's instructions. [cDNA Synthesis by One Step RT-PCR] 200 ng of RNA template was used for a 25 μL reverse transcription reaction using Super Script® One-Step RT-PCR kit with Platinum® Taq polymerase (Cat. Number 10928-042, Invitrogen) and a set of exon-specific primers [SCN-exon 2_forward: (5'→3') […] NO: 74), and SCN-exon 9_reverse: (5'→3') […] [Nested PCR Amplification] 1 μL of cDNA solution (diluted by 100×) was subjected to a 20 μl PCR amplification by nested PCR (Cat. Number K2612, Bioneer) against a set of exon-specific primers [SCN-exon 3n_forward: (5'→3') […] NO: 76); and SCN-exon 8_reverse: (5'→3') […] Thus “SCN-exon 3n_forward” recognizes “the junction of exon 3 and exon 5” more selectively than “the junction of exon 3 and exon 4” found in the full length SCN9A mRNA. The primer sequence was designed to detect SCN9A splice variants lacking exon 4 more sensitively than the full length SCN9A mRNA. Such an exon skipping primer would be useful to detect mRNA splice variants having poor metabolic stability, since the full-length mRNA tends to show good metabolic stability gained through the evolution over billions years. [Identification of Exon Skipping Products] The nested PCR products were subjected to electrophoretic separation on a 2% agarose gel. The bands of target size were collected and analyzed by Sanger sequencing. […] “SCN-ASO 27” was evaluated for its ability to induce the skipping of “exon 4” in PC3 cells as described in “SCN9A Example 1”, unless noted otherwise. [Cell Culture & ASO Treatment] PC3 cells grown in 60 mm culture dish containing 5 mL culture medium were treated with “SCN-ASO 27” at 0 (negative control), 1, 10 or 100 zM. [Nested PCR Amplification] […] NO: 89); and SCN-exon 9n_reverse: (5'→3') […] “SCN-ASO 27” was evaluated for its ability to induce the skipping of “exon 4” in PC3 cells as described in “SCN9A Example 8”, unless noted otherwise. In this experiment, PC3 cells were treated with “SCN-ASO 27” at 0 (negative control), 1, 10, 100 and 1,000 aM for 24 hours. [Nested PCR Amplification] The nested PCR reaction was carried out against a set of primers of [SCN-exon 3/6_forward: (5'→3') […] NO: 91); and SCN-exon 9n_reverse: (5'→3') […]
substance,measurement,setting,value
"Fethoc-A(5)GA-G(6)CC(1O2)-TCA-A(5)AA(5)-T-NH2 (antisense AGAGCCTCAAAAT; Fethoc N-cap, C-terminal amide, chemistry not fully specified) [DMD-ASO 1]",premature deaths (unscheduled death or sacrifice),"[1]; DMD-ASO 1 50 pmole/Kg, DMD-ASO 2 or DMD-ASO 6 10 pmole/Kg, subcutaneous 2× per week, 66 weeks",two premature deaths
same,cases of muscular lymphoma,"[1]; chronic 10, 50 or 200 pmole/Kg up to Week 43",no cases of lymphoma
"Fethoc-AC(1O2)T-TA(5)C-G(6)CA-A(5)AA(5)-AC(1O2)A-A(5)-NH2 (ACTTACGCAAAAACAA; all peptide nucleic acid (PNA), [C(1O2)] at 2, 14, [A(5)] at 5, 10, 12, 16, [G(6)] at 7, 5' {Fethoc}, 3' {NH2}; peptide nucleic acid written N to C) [SCN-ASO 7]",skipping of SCN9A exon 4 by nested PCR,"[2]; PC3 cells, 1 aM, 24 hours",conspicuously strong
same,skipping of SCN9A exon 4 by nested PCR,"[2]; PC3 cells, 10 and 100 zM, 24 hours",visible
"Fethoc-AA(5)G-TG(5)T-A(5)CC(1O2)-TA(5)A-A(5)C-NH2 (AAGTGTACCTAAAC; splice-switching; all peptide nucleic acid (PNA), [A(5)] at 2, 7, 11, 13, [G(5)] at 5, [C(1O2)] at 9, 5' {Fethoc}, 3' {NH2}; peptide nucleic acid written N to C) [SCN-ASO 27]",SCN9A exon skipping by nested PCR (exon 3/6 junction primer),"[2]; PC3 cells, 1, 10, 100 and 1,000 aM, 24 hours",yielded a strong PCR band assignable to the skipping of exons 4-5
same,SCN9A exon skipping by nested PCR,"[2]; PC3 cells, 1, 10 or 100 zM",yielded a strong PCR band assignable to the skipping of exons 4-5
same,PCR band intensity for the full-length SCN9A mRNA,"[2]; PC3 cells, 10 zM and 100 zM",stronger in treatment samples of 10 zM and 100 zM ASO than in the samples of the negative control
